Assay [1] concerns the target T1, Phosphatidylinositol 4,5-bisphosphate 3-kinase catalytic subunit delta isoform (Homo sapiens, UniProt O00329).
T1 sequence (O00329 whole entry): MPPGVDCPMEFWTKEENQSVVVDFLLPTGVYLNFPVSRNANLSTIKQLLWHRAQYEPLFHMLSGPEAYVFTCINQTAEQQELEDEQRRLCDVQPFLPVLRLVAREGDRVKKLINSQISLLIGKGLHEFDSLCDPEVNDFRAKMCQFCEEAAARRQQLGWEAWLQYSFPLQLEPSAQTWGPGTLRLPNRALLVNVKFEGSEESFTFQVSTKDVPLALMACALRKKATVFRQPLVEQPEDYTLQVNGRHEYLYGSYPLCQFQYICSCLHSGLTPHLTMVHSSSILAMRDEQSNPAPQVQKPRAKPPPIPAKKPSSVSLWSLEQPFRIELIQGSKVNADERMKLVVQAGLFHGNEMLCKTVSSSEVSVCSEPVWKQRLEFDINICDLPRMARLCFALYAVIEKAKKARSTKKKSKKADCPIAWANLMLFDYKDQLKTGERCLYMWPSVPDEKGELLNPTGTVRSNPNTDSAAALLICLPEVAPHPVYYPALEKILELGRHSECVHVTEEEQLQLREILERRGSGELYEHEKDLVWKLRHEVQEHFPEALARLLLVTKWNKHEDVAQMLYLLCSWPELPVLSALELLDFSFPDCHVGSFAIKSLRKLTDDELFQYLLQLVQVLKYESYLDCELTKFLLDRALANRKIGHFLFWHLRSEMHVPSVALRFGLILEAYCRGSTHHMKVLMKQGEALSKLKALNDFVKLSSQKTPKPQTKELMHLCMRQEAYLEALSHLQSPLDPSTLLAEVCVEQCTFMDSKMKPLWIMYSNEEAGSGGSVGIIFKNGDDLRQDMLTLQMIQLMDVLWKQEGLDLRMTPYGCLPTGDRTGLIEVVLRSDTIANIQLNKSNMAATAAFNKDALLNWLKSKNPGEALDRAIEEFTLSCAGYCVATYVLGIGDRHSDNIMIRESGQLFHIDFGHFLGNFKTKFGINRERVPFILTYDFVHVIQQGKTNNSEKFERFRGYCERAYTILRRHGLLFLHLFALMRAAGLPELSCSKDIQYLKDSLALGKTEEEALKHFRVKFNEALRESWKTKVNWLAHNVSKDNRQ
Briefly: PI3K Delta Assay.
Description: Selectivity can be measured by methods routine in the art. In some embodiments, selectivity can be tested at the Km ATP concentration of each enzyme. In some embodiments, the selectivity of compounds described herein can be determined by cellular assays associated with particular PI3K kinase activity.

In assay [2] the target is Tyrosine-protein kinase JAK1 (Homo sapiens, UniProt P23458). Briefly: JAK1 Assay.
Sequence of Tyrosine-protein kinase JAK1 (P23458 whole entry): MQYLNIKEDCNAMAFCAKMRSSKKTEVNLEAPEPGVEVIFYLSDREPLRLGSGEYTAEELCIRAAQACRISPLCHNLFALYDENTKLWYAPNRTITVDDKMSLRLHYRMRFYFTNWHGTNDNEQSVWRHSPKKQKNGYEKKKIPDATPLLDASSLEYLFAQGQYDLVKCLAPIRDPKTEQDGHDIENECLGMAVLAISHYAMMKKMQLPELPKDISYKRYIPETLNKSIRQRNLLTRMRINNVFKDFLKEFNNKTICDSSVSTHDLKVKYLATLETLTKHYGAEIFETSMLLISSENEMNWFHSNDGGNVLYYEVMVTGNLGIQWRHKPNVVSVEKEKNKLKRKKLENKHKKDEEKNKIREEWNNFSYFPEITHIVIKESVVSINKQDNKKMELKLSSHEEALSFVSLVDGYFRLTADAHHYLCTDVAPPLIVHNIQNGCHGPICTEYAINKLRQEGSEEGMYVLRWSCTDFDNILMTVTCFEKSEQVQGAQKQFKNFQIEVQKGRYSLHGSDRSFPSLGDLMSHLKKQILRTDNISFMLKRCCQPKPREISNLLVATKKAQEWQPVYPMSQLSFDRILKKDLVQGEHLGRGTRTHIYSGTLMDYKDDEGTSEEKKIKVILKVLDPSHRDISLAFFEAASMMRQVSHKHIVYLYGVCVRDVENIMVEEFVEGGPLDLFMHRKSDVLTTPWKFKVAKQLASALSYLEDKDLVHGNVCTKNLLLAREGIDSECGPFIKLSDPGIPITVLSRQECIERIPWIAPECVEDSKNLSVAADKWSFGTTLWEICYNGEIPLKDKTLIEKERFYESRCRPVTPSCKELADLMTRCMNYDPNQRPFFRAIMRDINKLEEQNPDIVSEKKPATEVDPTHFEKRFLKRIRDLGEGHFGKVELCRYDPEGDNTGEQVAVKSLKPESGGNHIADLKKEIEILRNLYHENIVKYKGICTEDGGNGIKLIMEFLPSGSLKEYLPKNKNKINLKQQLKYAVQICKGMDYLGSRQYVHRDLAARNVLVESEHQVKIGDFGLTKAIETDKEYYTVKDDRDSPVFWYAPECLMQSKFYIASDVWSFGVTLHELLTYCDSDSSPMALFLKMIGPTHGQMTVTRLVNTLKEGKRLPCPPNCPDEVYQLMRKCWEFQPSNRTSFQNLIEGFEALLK

For the compound `CCOc1c(C(C)n2nc(C)c3c(N)ncnc32)cc(Cl)c(F)c1C1CNC(=O)C1` (configuration not stated) [4-{3-[1-(4-amino-3-methyl-1H-pyrazolo[3,4 d]pyrimidin-1-yl)ethyl]-5-chloro-2-ethoxy-6-fluorophenyl}pyrrolidin-2-one], in assay [1], half-maximal inhibition (IC50) was put at 125 nM.
On to `N#CCC(CN1CCN(C(=O)c2ccc(C#N)cc2F)CC1)n1cc(-c2ncnc3[nH]ccc23)cn1` (configuration not stated) [4-[(4-{3-cyano-2-[4-(7H-pyrrolo[2,3-d]pyrimidin-4-yl)-1H-pyrazol-1-yl]propyl}piperazin-1-yl)carbonyl]-3-fluorobenzonitrile], for which, in assay [2], the IC50 (commonly the point on the concentration scale where inhibition reaches its midpoint) is less than 10 nM.
